# Reference: patent US20250154197A1, “LIPOLYTIC PEPTIDES” (FUNDACIÓ HOSPITAL UNIVERSITARI VALL D'HEBRON - INSTITUT DE …, priority 2021, published 2025)
# Where no end group is shown, it is not given here. [ ]: non-standard residue; d: D form. The star is where a group is joined. Palmitoyl = CCCCCCCCCCCCCCCC(=O)*; Propionyl = CCC(=O)*
# Tests used:
# [1] = tested on: human subcutaneoous mature adipocytes; experiment: Lipolytic activity: glycerol release in human adipocytes (Lipolysis Assay kit); format: cell-based; conditions: human subcutaneous mature adipocytes
# 3T3-L1 mouse adipocytes = experiment: Lipolytic activity: glycerol release in differentiated 3T3-L1 mouse adipocytes (12 h); format: cell-based; conditions: 3T3-L1 mouse adipocytes, 12 h
# Protocol: JCRB9014-A) from Tebu-Bio (Tebu-bio, Barcelona, Spain). Briefly, mouse adipocytes (3T3-L1 cells) were cultured in 48 well plates as described previously (Saez-Lopez et al., 2020). Adipocytes were differentiated using cell culture reagents purchased from Tebu-Bio and following the manufacturer's instructions. At day of differentiation cells were treated in duplicates with vehicle (DMSO), Caffeine (100 μg/ml), and each of the peptides at the specified doses in Table 6a below. At the end of the experiment (12 h), supernatants were collected and glycerol content was measured using a Glycerol Assay Kit (Sigma) following manufacturer's instructions.
Substance,Lipolysis Activity measured as Glycerol (μM) release in media ([1]; 100 μg/ml),Lipolysis Activity measured as Glycerol (μM) release in media ([1]; 25 μg/ml),Lipolysis Activity measured as Glycerol (μM) release in media ([1]; 50 μg/ml),Lipolysis Activity measured as Glycerol (μM) release in media (3T3-L1 mouse adipocytes; 1 μg/ml),Lipolysis Activity measured as Glycerol (μM) release in media (3T3-L1 mouse adipocytes; 10 μg/ml),Lipolysis Activity measured as Glycerol (μM) release in media (3T3-L1 mouse adipocytes; 100 μg/ml),Lipolysis Activity measured as Glycerol (μM) release in media ([1]; 75 μg/ml)
"Ac-LN-LD-LP-LE-G-LL-LY (Ac-NDPEGLY) [Acetyl-NH-GP3DM-12, N-term CH3CONH, C-term COOH]",138.6 µM,–,–,–,–,–,–
"Ac-NDLEGLY (Ac-[dN][dD][dL][dE]G[dL][dY]-OH; SMILES CC(=O)N[C@H](CC(N)=O)C(=O)N[C@H](CC(=O)O)C(=O)N[C@H](CC(C)C)C(=O)N[C@H](CCC(=O)O)C(=O)NCC(=O)N[C@H](CC(C)C)C(=O)N[C@H](Cc1ccc(O)cc1)C(=O)O) [GP3DM-25, N-term CH3CONH, C-term COOH]",121.6 µM,134.2 µM,104.4 µM,–,–,–,–
"Ac-NDLEGLY-NH2 (Ac-[dN][dD][dL][dE]G[dL][dY]-NH2; SMILES CC(=O)N[C@H](CC(N)=O)C(=O)N[C@H](CC(=O)O)C(=O)N[C@H](CC(C)C)C(=O)N[C@H](CCC(=O)O)C(=O)NCC(=O)N[C@H](CC(C)C)C(=O)N[C@H](Cc1ccc(O)cc1)C(N)=O) [GP3DM-29, N-term CH3CONH, C-term CONH2]",131.9 µM,123.8 µM,72.4 µM,–,–,–,–
"Ac-NDPEGLY (Ac-[dN][dD][dP][dE]G[dL][dY]-OH; SMILES CC(=O)N[C@H](CC(N)=O)C(=O)N[C@H](CC(=O)O)C(=O)N1CCC[C@@H]1C(=O)N[C@H](CCC(=O)O)C(=O)NCC(=O)N[C@H](CC(C)C)C(=O)N[C@H](Cc1ccc(O)cc1)C(=O)O) [Acetyl-NH-EDL67, N-term CH3CONH, C-term COOH]",74.2 µM,66.2 µM,121.0 µM,–,–,–,–
"Ac-NDPEGLY-NH2 (Ac-[dN][dD][dP][dE]G[dL][dY]-NH2; SMILES CC(=O)N[C@H](CC(N)=O)C(=O)N[C@H](CC(=O)O)C(=O)N1CCC[C@@H]1C(=O)N[C@H](CCC(=O)O)C(=O)NCC(=O)N[C@H](CC(C)C)C(=O)N[C@H](Cc1ccc(O)cc1)C(N)=O) [GP3DM-27, N-term CH3CONH, C-term CONH2]",142.7 µM,72.6 µM,133.3 µM,–,–,–,–
"Ac-TWDPEGVIFY-NH2 (Ac-[dT][dW][dD][dP][dE]G[dV][dI][dF][dY]-NH2; SMILES CC[C@@H](C)[C@@H](NC(=O)[C@H](NC(=O)CNC(=O)[C@@H](CCC(=O)O)NC(=O)[C@H]1CCCN1C(=O)[C@@H](CC(=O)O)NC(=O)[C@@H](Cc1c[nH]c2ccccc12)NC(=O)[C@H](NC(C)=O)[C@H](C)O)C(C)C)C(=O)N[C@H](Cc1ccccc1)C(=O)N[C@H](Cc1ccc(O)cc1)C(N)=O) [GP3D-AcNH2, N-term CH3CONH, C-term CONH2]",–,–,–,606 µM,464 µM,472 µM,–
"CH3(CH2)14CONH-NDLEGLY (Palmitoyl-[dN][dD][dL][dE]G[dL][dY]-OH; SMILES CCCCCCCCCCCCCCCC(=O)N[C@H](CC(N)=O)C(=O)N[C@H](CC(=O)O)C(=O)N[C@H](CC(C)C)C(=O)N[C@H](CCC(=O)O)C(=O)NCC(=O)N[C@H](CC(C)C)C(=O)N[C@H](Cc1ccc(O)cc1)C(=O)O) [GP3DM-28, N-term CH3(CH2)14CONH, C-term COOH]",106.0 µM,50.5 µM,122.6 µM,–,–,–,–
"DN-LD-LP-LE-G-LL-LY ([dN]DPEGLY) [GP3DM-13, N-term NH2, C-term COOH]",42.1 µM,–,49.5 µM,–,–,–,–
"EtCONH-NDLEGLY (Propionyl-[dN][dD][dL][dE]G[dL][dY]-OH; SMILES CCC(=O)N[C@H](CC(N)=O)C(=O)N[C@H](CC(=O)O)C(=O)N[C@H](CC(C)C)C(=O)N[C@H](CCC(=O)O)C(=O)NCC(=O)N[C@H](CC(C)C)C(=O)N[C@H](Cc1ccc(O)cc1)C(=O)O) [GP3DM-26, N-term CH3CH2CONH, C-term COOH]",149.6 µM,98.4 µM,140.0 µM,–,–,–,–
"LN-DD-LP-LE-G-LL-LY (N[dD]PEGLY) [GP3DM-14, N-term NH2, C-term COOH]",52.8 µM,–,53.1 µM,–,–,–,–
"LN-LD-DP-LE-G-LL-LY (ND[dP]EGLY) [GP3DM-15, N-term NH2, C-term COOH]",47.2 µM,–,42.0 µM,–,–,–,–
"LN-LD-LP-DE-G-LL-LY (NDP[dE]GLY) [GP3DM-16, N-term NH2, C-term COOH]",44.1 µM,–,41.5 µM,–,–,–,–
"LN-LD-LP-LE-G-DL-LY (NDPEG[dL]Y) [GP3DM-17, N-term NH2, C-term COOH]",53.6 µM,–,47.4 µM,–,–,–,–
"LN-LD-LP-LE-G-LL-DY (NDPEGL[dY]) [GP3DM-18, N-term NH2, C-term COOH]",63.5 µM,–,44.4 µM,–,–,–,–
"NDEGLFY (H-[dN][dD][dE]G[dL][dF][dY]-OH; SMILES CC(C)C[C@@H](NC(=O)CNC(=O)[C@@H](CCC(=O)O)NC(=O)[C@@H](CC(=O)O)NC(=O)[C@H](N)CC(N)=O)C(=O)N[C@H](Cc1ccccc1)C(=O)N[C@H](Cc1ccc(O)cc1)C(=O)O) [GP3DM-19, N-term NH2, C-term COOH]",123.3 µM,87.1 µM,64.0 µM,–,–,–,–
"NDEGLY [GP3DM-22] (H-[dN][dD][dE]G[dL][dY]-OH; SMILES CC(C)C[C@@H](NC(=O)CNC(=O)[C@@H](CCC(=O)O)NC(=O)[C@@H](CC(=O)O)NC(=O)[C@H](N)CC(N)=O)C(=O)N[C@H](Cc1ccc(O)cc1)C(=O)O) [N-term NH2, C-term COOH]",131.9 µM,52.1 µM,59.5 µM,–,–,–,–
"NDEGLY [GP3DM-23] (H-[dN][dD][dE]G[dL][dY]-OH; SMILES CC(C)C[C@@H](NC(=O)CNC(=O)[C@@H](CCC(=O)O)NC(=O)[C@@H](CC(=O)O)NC(=O)[C@H](N)CC(N)=O)C(=O)N[C@H](Cc1ccc(O)cc1)C(=O)O) [N-term NH2, C-term COOH]",170.0 µM,139.7 µM,97.7 µM,–,–,–,–
"NDEGLY [GP3DM-24] (H-[dN][dD][dE]G[dL][dY]-OH; SMILES CC(C)C[C@@H](NC(=O)CNC(=O)[C@@H](CCC(=O)O)NC(=O)[C@@H](CC(=O)O)NC(=O)[C@H](N)CC(N)=O)C(=O)N[C@H](Cc1ccc(O)cc1)C(=O)O) [N-term NH2, C-term COOH]",148.6 µM,105.2 µM,111.0 µM,–,–,–,–
"NDLEGLY (H-[dN][dD][dL][dE]G[dL][dY]-OH; SMILES CC(C)C[C@@H](NC(=O)CNC(=O)[C@@H](CCC(=O)O)NC(=O)[C@@H](CC(C)C)NC(=O)[C@@H](CC(=O)O)NC(=O)[C@H](N)CC(N)=O)C(=O)N[C@H](Cc1ccc(O)cc1)C(=O)O) [GP3DM-21, N-term NH2, C-term COOH]",102.5 µM,116.5 µM,116.7 µM,–,–,–,–
"NDPEGY (H-[dN][dD][dP][dE]G[dY]-OH; SMILES NC(=O)C[C@@H](N)C(=O)N[C@H](CC(=O)O)C(=O)N1CCC[C@@H]1C(=O)N[C@H](CCC(=O)O)C(=O)NCC(=O)N[C@H](Cc1ccc(O)cc1)C(=O)O) [GP3DM-20, N-term NH2, C-term COOH]",118.7 µM,128.1 µM,117.7 µM,–,–,–,–
"WDPEGVF (H-[dW][dD][dP][dE]G[dV][dF]-OH; SMILES CC(C)[C@@H](NC(=O)CNC(=O)[C@@H](CCC(=O)O)NC(=O)[C@H]1CCCN1C(=O)[C@@H](CC(=O)O)NC(=O)[C@H](N)Cc1c[nH]c2ccccc12)C(=O)N[C@H](Cc1ccccc1)C(=O)O) [GP3D-7 I VIII X, N-term NH2, C-term COOH]",46.85 µM,14.57 µM,36.68 µM,–,–,–,42.95 µM
"acetyl-hexapeptide-39 (Ac-SIYVAT-NH2) [Hexa-39, reference compound]",29.21 µM,–,–,–,–,–,–
